The text below walks through data of US20070185014A1, “Methods and compositions for modulating conjunctival goblet cells” (The Schepens Eye Research Institute, Inc., priority 2006, published 2007).

Experiment [1] concerns rat conjunctival goblet cells. As to the kind of experiment: Goblet cell proliferation, Ki-67/UEA-1/DAPi immunofluorescence assay (Example 3B). Particulars: 24 hours; concentration most effective in the fluorescence assay (FBS 10%). The experiment is classed as cell-based. An excerpt:
Conjunctival tissue from the fomical area and the nictitating membranes were removed from male Sprague Dawley rats. Tissue pieces were placed in explant culture in RPMI supplemented with fetal bovine serum (FBS). Over several days cells grew out of the explant and proliferated. Non-goblet cells, predominantly fibroblasts, were removed by scraping. Goblet cells were allowed to grow and proliferate for several days. Cells were removed from the tissue culture vessel by trypsin treatment. The number of cells was counted using a coulter counter. For measurement of proliferation 200 cells were seeded onto 96 well plates. […]
B. Immunofluorescence Assay This assay was used to confirm the results from the fluorescence assay. […]
Ki-67 was detected with a rhodamine secondary antibody using a filter that measures excitation wavelengths from 530-560 nm. UEA-1, which stains goblet cells, was directly conjugated to fluorescein isothyocyanate (FITC) and was detected using a filter that measures excitation wavelengths from 450-490 nm. DAPi, which stains the nuclei of all cells, was detected using a filter that measures excitation wavelengths from 400-418 nm. The percentage of proliferating goblet cells is determined by dividing the number of Ki-67 positive goblet cells by the total number of cells and multiplying by 100. […]

For experiment [2], the system named is rat conjunctival goblet cells. As to the kind of experiment: Goblet cell proliferation, WST tetrazolium assay (Example 3A, Fluorescence Assay). It is filed as cell-based. Particulars: for stimulation of goblet cell proliferation compared to control (no additions): 10^−7 M; for goblet cell proliferation, Ave. fold / goblet cell proliferation, fold of basal, rat101 / goblet cell proliferation, fold of basal, rat102 / goblet cell proliferation, fold of basal, rat103: 24 hrs; for goblet cell proliferation, Ave. fold: average of 3 rats; for goblet cell proliferation, fold of basal, rat101: cells from rat101; for goblet cell proliferation, fold of basal, rat102: cells from rat102; for goblet cell proliferation, fold of basal, rat103: cells from rat103. An excerpt: Conjunctival tissue from the fomical area and the nictitating membranes were removed from male Sprague Dawley rats. Tissue pieces were placed in explant culture in RPMI supplemented with fetal bovine serum (FBS). […] Non-goblet cells, predominantly fibroblasts, were removed by scraping. Goblet cells were allowed to grow and proliferate for several days. Cells were removed from the tissue culture vessel by trypsin treatment. The number of cells was counted using a coulter counter. For measurement of proliferation 200 cells were seeded onto 96 well plates. Cells were allowed to attach and proliferate until a sparsely confluent level was obtained, about two days.
Goblet cells from passage 1 or 2 cultured as above were used for measurement of proliferation. Cells were plated at 200 cells/well. Cells were serum-starved for 24 or 48 hrs. Test compounds in varying concentrations were added to each cell well for 24 hrs. The positive control for proliferation was the addition of 10% FBS, a known maximal stimulator of proliferation. Proliferation was terminated by the removal of medium.

Regarding “EGF: epidermal growth factor, activates ErbB-1 receptors”, the “proliferation (Ki-67 positive goblet cells as percentage of total cells)” value in experiment [1] is 40%. In addition, the “stimulation of goblet cell proliferation compared to control (no additions)” value (shortened to “stimulation … compared to control (no additions)”) in experiment [2] is given as “about two”.

Regarding “bFGF: Basic fibroblast growth factor, also referred to as FGF-2”, the “proliferation (Ki-67 positive goblet cells as percentage of total cells)” value in experiment [1] was determined as 70%. For the same molecule, the “effect on goblet cell proliferation” value in experiment [2] (10-20 ng/ml, similar to PDGF (2-fold)) is given as “had similar effects”.

As for “Galectin-1: recombinant galectin, mono-CRD carbohydrate-binding protein, obtained from Cell Services, Massachusetts, 98% pure”, in experiment [2] (0.1 μg/ml to 5 μg/ml), the “dose dependence of effect on goblet cell proliferation” value is “appeared to be dose dependent” and the “effect on goblet cell proliferation” value is “both galectins stimulated goblet cell proliferation”. In experiment [2] (0.1 ug/ml), the “goblet cell proliferation, Ave. fold” value came to 1.0 fold; the “goblet cell proliferation, fold of basal, rat101” value is recorded as 1.1 fold; the “goblet cell proliferation, fold of basal, rat102” value came out at 1.0 fold; the “goblet cell proliferation, fold of basal, rat103” value is recorded as 1.0 fold. In experiment [2] (0.5 ug/ml), the “goblet cell proliferation, Ave. fold” value was determined as 1.0 fold; the “goblet cell proliferation, fold of basal, rat101” value is listed as 1.1 fold; the “goblet cell proliferation, fold of basal, rat102” value was 1.0 fold; the “goblet cell proliferation, fold of basal, rat103” value amounted to 1.0 fold. Moreover, in experiment [2] (1.0 ug/ml), the “goblet cell proliferation, Ave. fold” value is reported as 1.0 fold; the “goblet cell proliferation, fold of basal, rat101” value turned out to be 1.1 fold; the “goblet cell proliferation, fold of basal, rat102” value is given as 1.0 fold; the “goblet cell proliferation, fold of basal, rat103” value was found to be 1.0 fold. Further, in experiment [2] (2.0 ug/ml), the “goblet cell proliferation, Ave. fold” value is recorded as 1.2 fold; the “goblet cell proliferation, fold of basal, rat101” value amounted to 1.5 fold; the “goblet cell proliferation, fold of basal, rat102” value was determined as 1.2 fold; the “goblet cell proliferation, fold of basal, rat103” value is 1.1 fold. In experiment [2] (5.0 ug/ml), the “goblet cell proliferation, Ave. fold” value is on record as 1.3 fold; the “goblet cell proliferation, fold of basal, rat101” value amounted to 1.4 fold; the “goblet cell proliferation, fold of basal, rat102” value is 1.4 fold; the “goblet cell proliferation, fold of basal, rat103” value is 1.2 fold.

Consider “Galectin-3: recombinant galectin with single CRD domain and extended N-terminal region, obtained from Cell Services, Massachusetts, 98% pure”, for which, in experiment [2] (0.1 μg/ml to 5 μg/ml), the “dose dependence of effect on goblet cell proliferation” value was “appeared to be dose dependent” and the “effect on goblet cell proliferation” value is given as “both galectins stimulated goblet cell proliferation”. For the same molecule, in experiment [2] (0.1 ug/ml), the “goblet cell proliferation, Ave. fold” value is 1.0 fold; the “goblet cell proliferation, fold of basal, rat101” value is 1.0 fold; the “goblet cell proliferation, fold of basal, rat102” value turned out to be 0.9 fold; the “goblet cell proliferation, fold of basal, rat103” value was determined as 1.0 fold. Also, in experiment [2] (0.5 ug/ml), the “goblet cell proliferation, Ave. fold” value is reported as 1.1 fold; the “goblet cell proliferation, fold of basal, rat101” value is 1.3 fold; the “goblet cell proliferation, fold of basal, rat102” value is 1.0 fold; the “goblet cell proliferation, fold of basal, rat103” value stood at 1.0 fold. In experiment [2] (1.0 ug/ml), the “goblet cell proliferation, Ave. fold” value is 1.2 fold; the “goblet cell proliferation, fold of basal, rat101” value was 1.3 fold; the “goblet cell proliferation, fold of basal, rat102” value is reported as 1.1 fold; the “goblet cell proliferation, fold of basal, rat103” value is on record as 1.0 fold. In experiment [2] (2.0 ug/ml), the “goblet cell proliferation, Ave. fold” value is on record as 1.3 fold; the “goblet cell proliferation, fold of basal, rat101” value is 1.5 fold; the “goblet cell proliferation, fold of basal, rat102” value is 1.3 fold; the “goblet cell proliferation, fold of basal, rat103” value amounted to 1.1 fold. Also, in experiment [2] (5.0 ug/ml), the “goblet cell proliferation, Ave. fold” value came to 1.4 fold; the “goblet cell proliferation, fold of basal, rat101” value was 1.8 fold; the “goblet cell proliferation, fold of basal, rat102” value is 1.2 fold; the “goblet cell proliferation, fold of basal, rat103” value was 1.1 fold.

Consider `CC(C)Cn1c(=O)c2[nH]cnc2n(C)c1=O` [1-isobutyl-3methylxanthine, reference compound], for which the “effect on goblet cell proliferation” value in experiment [2] (10^−6 to 10^−3 M) was “did not increase proliferation at the concentrations tested”.

Take HGF: hepatocyte growth factor: the “effect on goblet cell proliferation” value in experiment [2] (15-40 ng/ml) is reported as “Neither hepatocyte growth factor (HGF, 15-40 ng/ml) nor keratinocyte growth factor (KGF, 10-30 ng/ml), at any of the concentrations used, stimulated cell proliferation”.

In the case of `CC(C)NCC(O)c1ccc(O)c(O)c1` (stereo not shown) [Isoproterenol, reference compound], in experiment [2] (10^−7 to 10^−3 M, likely due to interference with the assay), the “effect on goblet cell proliferation” value was “did not increase proliferation”.

`CCCC(=O)Nc1ncnc2c1ncn2[C@@H]1O[C@@H]2COP(=O)(O)O[C@H]2[C@H]1OC(=O)CCC` [butyryl cAMP, dibutyryl cAMP, reference compound]: in experiment [2] (10^−6 to 10^−3 M), the “effect on goblet cell proliferation” value is “did not increase proliferation at the concentrations tested”.

For PDGF, in experiment [2] (5 to 25 ng/ml), the “increase in goblet cell proliferation compared to no additions” value is listed as 2 fold.

On to `CCCCCCCCCCCCCC(=O)O[C@@H]1[C@@H](C)[C@@]2(O)[C@@H](C=C(CO)C[C@]3(O)C(=O)C(C)=C[C@@H]23)[C@@H]2C(C)(C)[C@]12OC(C)=O` [PMA, Phorbol myristic acid, reference compound], for which, in experiment [2] (10^−8M, solubilized in less than 1% DMSO, compared to no additions), the “effect on goblet cell proliferation” value is reported as “did not stimulate cell proliferation”.

As for Heregulin, in experiment [2], the “stimulation … compared to control (no additions)” value is recorded as “more than 2 fold”.

On to `CCCC(=O)O[C@@H]1[C@@H](C)[C@@]2(O)[C@@H](C=C(CO)C[C@]3(O)C(=O)C(C)=C[C@@H]23)[C@@H]2C(C)(C)[C@]12OC(=O)CCC` [phorbol dibutyrate β isoform, phorbol dibutyrate, reference compound], for which the “effect on goblet cell proliferation” value is recorded as “Neither isoform increased proliferation except at high concentrations” in experiment [2] (concentrations not greater than 10^−7 M, solubilized in DMSO) and “both isoforms increased proliferation” in experiment [2] (high concentrations, greater than 10^−7 M, effect not mediated by PKC).

Consider “transforming growth factor (TGF)α: EGF family growth factor that activates ErbB-1 receptors”, for which the “stimulation … compared to control (no additions)” value in experiment [2] is listed as “about two”.

Turning to `C[N+](C)(C)CCOC(N)=O` [Carbachol, reference compound], the “effect on goblet cell proliferation” value in experiment [2] (10^−6 to 10^−3 M) is on record as “did not increase cell proliferation at any concentration”.

B1: HB-EGF: Heparin binding-EGF, binds to ErbB-1 and ErbB-3 receptors (protein, UniProt Q99075 63-148, looked up)
Heparin-binding EGF-like …: DLQEADLDLLRVTLSSKPQALATPNKEEHGKRKKKGKGLGKKRDPCLRKYKDFCIHGECKYVKELRAPSCICHPGYHGERCHGLSL
Consider B1, for which the “stimulation … compared to control (no additions)” value in experiment [2] worked out at 2 fold.

B2: KGF: keratinocyte growth factor (protein, UniProt P21781 32-194, looked up)
Fibroblast growth factor 7: CNDMTPEQMATNVNCSSPERHTRSYDYMEGGDIRVRRLFCRTQWYLRIDKRGKVKGTQEMKNNYNIMEIRTVAVGIVAIKGVESEFYLAMNKEGKLYAKKECNEDCNFKELILENHYNTYASAKWTHNGGEMFVALNQKGIPVRGKKTKKEQKTAHFLPMAIT
For B2, the “effect on goblet cell proliferation” value in experiment [2] (10-30 ng/ml) is listed as “Neither hepatocyte growth factor (HGF, 15-40 ng/ml) nor keratinocyte growth factor (KGF, 10-30 ng/ml), at any of the concentrations used, stimulated cell proliferation”.
